Assay results from patent US20110312941A1, “1,4-DISUBSTITUTED PIPERIDINES AS VASOPRESSIN RECEPTOR VIA ANTAGONISTS” (VANTIA LIMITED, priority 2009, published 2011).

target: T1, cloned human V1a receptor (Homo sapiens, UniProt P37288); assay: in vitro functional calcium mobilisation assay (FLIPR), antagonist activity, 1321N1 cells, 250 pM AVP; assay type: cell-based; details: functional pKi derived from pIC50 (Equation 1), FLIPR Ca2+ mobilisation, 1321N1 cells expressing cloned human V1a receptor
T1 construct: host or cells: human brain astrocytoma 1321N1 cells
T1 sequence (P37288 whole entry): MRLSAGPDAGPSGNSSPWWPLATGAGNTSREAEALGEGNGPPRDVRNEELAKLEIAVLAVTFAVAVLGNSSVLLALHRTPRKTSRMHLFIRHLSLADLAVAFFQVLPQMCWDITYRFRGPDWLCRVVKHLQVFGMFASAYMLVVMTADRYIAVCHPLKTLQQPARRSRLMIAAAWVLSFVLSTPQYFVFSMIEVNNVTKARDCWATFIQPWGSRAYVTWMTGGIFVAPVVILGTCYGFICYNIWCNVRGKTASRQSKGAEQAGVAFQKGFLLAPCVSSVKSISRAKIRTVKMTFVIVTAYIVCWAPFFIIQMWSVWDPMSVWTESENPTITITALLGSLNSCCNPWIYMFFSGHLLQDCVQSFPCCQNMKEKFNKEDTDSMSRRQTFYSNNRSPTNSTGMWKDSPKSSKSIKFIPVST
Experimental: The primary assay which may be used to determine the ability of the compounds of formula (1) to inhibit the vasopressin V1a receptor is an in vitro functional calcium mobilisation assay (FLIPR) that measures antagonist activity at a cloned human V1a receptor. The assay is described below.
The antagonist activity of compounds of formula (1) were determined in a Calcium (Ca2+) mobilisation assay using whole cells (human brain astrocytoma 1321N1 cells, ex Perkin Elmer) genetically modified to stably express a cloned human V1a receptor. Dose response curves were determined by displacement of a single concentration of agonist (250 pM AVP, ex Sigma) with increasing concentrations of compound. A pIC50 value is determined by non-linear regression to a 4-parameter logistic equation and a functional pKi (fpKi) derived using Equation 1.
where A=agonist single conc, and A50=the agonist EC50.

Compound | Mean fpKi (Human V1a)
(5H,11H-Benzo[e]pyrrolo[1,2-a][1,4]diazepin-10-yl)-[1-(2-nitro-phenyl)-piperidin-4-yl]-methanone [Example 172] | 7.35

same assay, conditions: functional pKi derived from pIC50 (Equation 1), FLIPR Ca2+ mobilisation, 1321N1 cells expressing cloned human V1a receptor, read-out: Mean fpKi (Human V1a) (converted)

Compound | Ki [nM]
Cc1cccc(N2CCC(C(=O)N3CCc4nc(N5CCOCC5)[nH]c4-c4cc(Cl)ccc43)CC2)n1 [Example 67] | 1.35
COc1ccnc(N2CCC(C(=O)N3CCc4nc(C5CCOCC5)[nH]c4-c4cc(C)ccc43)CC2)c1 [Example 41] | 2.34
O=C(C1CCN(c2ccccn2)CC1)N1CCc2nc(N3CCOCC3)[nH]c2-c2cc(F)ccc21 [Example 13] | 7.94
O=C(C1CCN(c2ccncc2)CC1)N1Cc2cccn2Cc2ccccc21 [Example 147] | 1480
Cc1nc2c([nH]1)-c1cc(Cl)ccc1N(C(=O)C1CCN(c3ccccc3Cl)CC1)CC2 [Example 86] | 31.6
CN1CCN(c2nc3c([nH]2)-c2cc(Cl)ccc2N(C(=O)C2CCN(c4ccccn4)CC2)CC3)CC1 [Example 51] | 17.4
Cc1ccc2c(c1)Nc1c(cnn1C)CN2C(=O)C1CCN(c2ccccc2F)CC1 [Example 127] | 2
N#Cc1cccc(N2CCC(C(=O)N3Cc4cccn4Cc4ccccc43)CC2)c1 [Example 170] | 25.7
CCc1ccc(N2CCC(C(=O)N3Cc4cnn(C)c4Nc4cc(Cl)ccc43)CC2)cc1 [Example 139] | 0.912
CCc1nc2c([nH]1)-c1cc(C)ccc1N(C(=O)C1CCN(c3cccc(C)n3)CC1)CC2 [Example 61] | 7.41
Cc1ccc(N2CCC(C(=O)N3CCc4nc(C5CC5)[nH]c4-c4cc(C)ccc43)CC2)nc1 [Example 25] | 1.51
O=C(C1CCN(c2ccccn2)CC1)N1Cc2cccn2Cc2cc(F)ccc21 [Example 150] | 1.91
O=C(C1CCN(c2ncccn2)CC1)N1Cc2cccn2Cc2ccccc21 [Example 143] | 117
Cc1ccc2c(c1)-c1[nH]c(N3CCOCC3)nc1CCN2C(=O)C1CCN(c2ncccc2C)CC1 [Example 2, (9-Methyl-2-morpholin-4-yl-4,5-dihydro-1H-1,3,6-triaza-benzo[e]azulen-6-yl)-(3′-methyl-3,4,5,6-tetrahydro-2H-[1,2′]bipyridinyl-4-yl)-methanone] | 1.45
Cc1ccc(N2CCC(C(=O)N3Cc4cccn4Cc4ccccc43)CC2)cc1 [Example 161] | 1.12
COc1ccc(N2CCC(C(=O)N3CCc4nc(C5CCOCC5)[nH]c4-c4cc(C)ccc43)CC2)nc1 [Example 42] | 5.62
O=C(C1CCN(c2ccccc2)CC1)N1Cc2cccn2Cc2cc(F)ccc21 [Example 151] | 0.794
NCc1ccc(N2CCC(C(=O)N3Cc4cccn4Cc4ccccc43)CC2)cc1 [Example 178] | 97.7
CCc1nc2c([nH]1)-c1cc(C)ccc1N(C(=O)C1CCN(c3ncccc3C)CC1)CC2 [Example 17] | 5.01
Cc1ccc(N2CCC(C(=O)N3CCc4nc(N5CCOCC5)[nH]c4-c4cc(C)ccc43)CC2)nc1 [Example 1, (9-Methyl-2-morpholin-4-yl-4,5-dihydro-1H-1,3,6-triaza-benzo[e]azulen-6-yl)-(5′-methyl-3,4,5,6-tetrahydro-2H-[1,2′]bipyridinyl-4-yl)-methanone] | 0.977
CCCc1ccc(N2CCC(C(=O)N3CCc4nc(C)[nH]c4-c4cc(Cl)ccc43)CC2)cc1 [Example 96] | 13.5
Cc1nc2c([nH]1)-c1cc(Cl)ccc1N(C(=O)C1CCN(c3ccccc3)CC1)CC2 [Example 72] | 9.12

Compound | Ki [nM]
O=C(C1CCN(c2ccccn2)CC1)N1CCc2nc(C3CC3)[nH]c2-c2cc(Cl)ccc21 [Example 48] | 10.2
O=C(C1CCN(c2ccccc2)CC1)N1CCc2nc(-c3ccccc3)[nH]c2-c2cc(Cl)ccc21 [Example 79] | 77.6
Cn1ncc2c1Nc1ccccc1N(C(=O)C1CCN(c3ncccn3)CC1)C2 [Example 98] | 141
Cc1nc2c([nH]1)-c1cc(Cl)ccc1N(C(=O)C1CCN(c3ccccn3)CC1)CC2 [Example 44] | 12.6
Cc1ccnc(N2CCC(C(=O)N3CCc4nc(N5CCOCC5)[nH]c4-c4ccccc43)CC2)c1 [Example 11] | 3.72
Cc1cccc(N2CCC(C(=O)N3CCc4nc(N5CCOCC5)[nH]c4-c4cc(F)ccc43)CC2)n1 [Example 5, (9-Fluoro-2-morpholin-4-yl-4,5-dihydro-1H-1,3,6-triaza-benzo[e]azulen-6-yl)-(6′-methyl-3,4,5,6-tetrahydro-2H-[1,2′]bipyridinyl-4-yl)-methanone] | 1.78
COc1cccc(N2CCC(C(=O)N3CCc4nc(N5CCOCC5)[nH]c4-c4cc(Cl)ccc43)CC2)n1 [Example 68] | 1.91
Cc1ccnc(N2CCC(C(=O)N3CCc4nc(N5CCOCC5)[nH]c4-c4cc(F)ccc43)CC2)c1 [Example 15] | 1.95
NCc1ccccc1N1CCC(C(=O)N2Cc3cccn3Cc3ccccc32)CC1 [Example 177, [1-(2-Aminomethyl-phenyl)-piperidin-4-yl]-(5H,11H-benzo[e]pyrrolo[1,2-a][1,4]diazepin-10-yl)-methanone] | 28.8
O=C(C1CCN(c2ccccn2)CC1)N1CCc2nc(-c3ccccc3)[nH]c2-c2cc(Cl)ccc21 [Example 53] | 64.6
Cc1ccc(N2CCC(C(=O)N3CCc4nc(N5CCN(C)CC5)[nH]c4-c4cc(Cl)ccc43)CC2)nc1 [Example 52] | 1.1
Cc1ccc(N2CCC(C(=O)N3Cc4cnn(Cc5ccccc5)c4Nc4cc(C)ccc43)CC2)nc1 [Example 114] | 20
CCc1nc2c([nH]1)-c1cc(Cl)ccc1N(C(=O)C1CCN(c3ccccc3)CC1)CC2 [Example 73] | 6.17
Cc1ccc(N2CCC(C(=O)N3CCc4nc(C5CCOCC5)[nH]c4-c4cc(C)ccc43)CC2)nc1 [Example 39] | 2
Cc1ccc(N2CCC(C(=O)N3Cc4cccn4Cc4ccccc43)CC2)nc1 [Example 145] | 15.1
Cn1ncc2c1Nc1cc(F)ccc1N(C(=O)C1CCN(c3ncccn3)CC1)C2 [Example 100] | 145
O=C(C1CCN(c2ccccc2)CC1)N1CCc2nc(N3CCCCC3)[nH]c2-c2cc(Cl)ccc21 [Example 77] | 18.2
Cc1ccc2c(c1)Cn1cccc1CN2C(=O)C1CCN(c2ccccn2)CC1 [Example 152] | 0.631
Cc1ccc(N2CCC(C(=O)N3CCc4nc(C)[nH]c4-c4cc(Cl)ccc43)CC2)cc1 [Example 91] | 1.26
Cc1ccnc(N2CCC(C(=O)N3CCc4nc(N5CCOCC5)[nH]c4-c4cc(Cl)ccc43)CC2)c1 [Example 58] | 0.646
Cc1nc2c([nH]1)-c1cc(Cl)ccc1N(C(=O)C1CCN(c3ncccn3)CC1)CC2 [Example 7] | 49
O=C(C1CCN(c2ccccn2)CC1)N1CCc2nc(-c3ccccc3F)[nH]c2-c2cc(Cl)ccc21 [Example 54] | 75.9

Compound | Ki [nM]
COc1cccc(N2CCC(C(=O)N3CCc4nc(N5CCOCC5)[nH]c4-c4cc(C)ccc43)CC2)n1 [Example 64] | 6.31
CN1CCN(c2nc3c([nH]2)-c2cc(Cl)ccc2N(C(=O)C2CCN(c4ccccc4)CC2)CC3)CC1 [Example 78] | 8.71
Cc1ccc(N2CCC(C(=O)N3CCc4nc(N5CCCC5)[nH]c4-c4cc(C)ccc43)CC2)nc1 [Example 43] | 7.59
CCn1ncc2c1Nc1cc(Cl)ccc1N(C(=O)C1CCN(c3ncccc3C)CC1)C2 [Example 120] | 0.912
Cc1nc2c([nH]1)-c1ccccc1N(C(=O)C1CCN(c3ccccn3)CC1)CC2 [Example 8] | 151
O=C(C1CCN(c2ccccn2)CC1)N1CCc2nc(Cc3ccccc3)[nH]c2-c2cc(Cl)ccc21 [Example 56] | 79.4
CCc1nc2c([nH]1)-c1cc(C)ccc1N(C(=O)C1CCN(c3cc(C)ccn3)CC1)CC2 [Example 18] | 2.29
CCCc1nc2c([nH]1)-c1cc(C)ccc1N(C(=O)C1CCN(c3cc(C)ccn3)CC1)CC2 [Example 22] | 2.04
Cc1nc2c([nH]1)-c1cc(Cl)ccc1N(C(=O)C1CCN(c3cccc(Cl)c3)CC1)CC2 [Example 87] | 69.2
Cc1ccnc(N2CCC(C(=O)N3CCc4nc(C5CCOCC5)[nH]c4-c4cc(C)ccc43)CC2)c1 [Example 38] | 2.24
CCc1nc2c([nH]1)-c1cc(C)ccc1N(C(=O)C1CCN(c3cc(C)ccn3)CC1)CC2 [Example 19] | 2.34
Cc1nc2c([nH]1)-c1cc(Cl)ccc1N(C(=O)C1CCN(c3cccc(F)c3)CC1)CC2 [Example 84] | 38
N#Cc1ccc(N2CCC(C(=O)N3Cc4cccn4Cc4ccccc43)CC2)cc1 [Example 171] | 214
O=C(C1CCN(c2ccccc2Cl)CC1)N1Cc2cccn2Cc2ccccc21 [Example 157] | 7.59
Cc1ccc2c(c1)Nc1c(cnn1C)CN2C(=O)C1CCN(c2cccc(C)n2)CC1 [Example 124] | 9.55
Cc1ccc2c(c1)-c1[nH]c(N3CCOCC3)nc1CCN2C(=O)C1CCN(c2cccc(C)n2)CC1 [Example 63] | 1.86
Cc1ccc2c(c1)Nc1c(cnn1C)CN2C(=O)C1CCN(c2ncccc2C)CC1 [Example 110] | 4.57
O=C(C1CCN(c2ccccc2)CC1)N1CCc2nc(C3CCCCC3)[nH]c2-c2cc(Cl)ccc21 [Example 76] | 28.2
Cc1cccnc1N1CCC(C(=O)N2CCc3nc(N4CCOCC4)[nH]c3-c3ccccc32)CC1 [Example 10] | 5.01
Cc1ccc2c(c1)Cn1cccc1CN2C(=O)C1CCN(c2ccccc2)CC1 [Example 153] | 0.234
COc1cccc(N2CCC(C(=O)N3CCc4nc(C)[nH]c4-c4cc(Cl)ccc43)CC2)c1 [Example 93] | 2.51
